According to paper PMC5418359, “Topical Ophthalmic Formulation of Trichostatin A and SurR9-C84A for Quick Recovery Post-alkali Burn of Corneal Haze” (Frontiers in Pharmacology, 2017):

Legend:
[1] = tested on: rat corneal tissues; conditions: confocal microscopy
[2] = tested on: rat eyes post-alkali burn
[3] = tested on: rat corneal lysates
[4] = tested on: expression of survivin, TGF-beta-1, alpha-SMA and collagen IV in alkali burnt cornea; test: Ex vivo RT-PCR dose ranging in alkali burnt rat eyes; conditions: 1 M NaOH 1 min, treatment 40 min
Method: This procedure was carried out using a previously published protocol ([Lin et al., 2016]). Rat eyes were harvested from humanely killed rats and washed with HBSS. Rat eyes were further incubated with 1 M NaOH for 1 min and then treated with TSA ([…]), SurR9-C84A (0.5, 1.2, and 2.5 mg/kg), pSur/As-Sur ([…]) and empty plasmid (200, 400, and 800 μg/kg) for 40 min. Untreated eyes were maintained as controls. After treatment period, eyes were washed with PBS and total RNA was extracted using the TRIzol® reagent (cat# 15596-026, Thermo Fisher Scientific, Waltham, MA, USA), and complementary DNA (cDNA) was synthesized from RNA using the RevertAid H Minus First Strand cDNA Synthesis Kit (cat# K1631, Thermo Fisher Scientific). Expression of survivin, TGF-beta-1, alpha-SMA and collagen IV was determined by polymerase chain reaction (PCR).

[5] = Ocular and systemic pharmacokinetics of TSA after topical application; conditions: for Concentration of TSA in Aqueous humor / Concentration of TSA in Conjunctiva / Concentration of TSA in Cornea / Concentration of TSA in Plasma / Concentration of TSA in Tear fluid: mean ±SD; for AUC0-8 / AUC0-∞ / Cmax / Tmax / t1/2: rat, topical application
Method: Pharmacokinetic analysis was done using the HPLC System for the levels of TSA in eye tissue and plasma samples was measured using PK methods. PK estimated using standard measurements for maximum concentration (Cmax), time to reach Cmax (Tmax), area under the concentration–time curve (AUC), elimination rate constant (K), elimination half-life (t1/2), apparent clearance (CL/F), apparent volume of distribution (Vd/F).

[6] = tested on: corneal lysate; test: Multianalyte ELISA of inflammatory cytokines in corneal lysate; format: in vivo, rat
Method: The cytokine profiling was performed using the Rat Inflammatory Cytokines & Chemokines Multi-Analyte ELISArray Kit (QIAGEN, USA). Briefly, serial dilutions of the Antigen Standard and the experimental samples were prepared. 50 μL of Assay Buffer was added to each well of the 8-well ELISA strips. Fifty microliters samples and/or standards were added to the appropriate wells of the ELISA strips and incubated for 2 h at room temperature. The ELISA strips were further washed using 350 μL 1 × Washing Buffer thrice. Hundred microliters of Detection Antibody solution was added to the ELISA strips and incubated for 1 h at room temperature. ELISA wells were washed as mentioned above. Hundred microliters of the Avidin–HRP solution was added to all wells and incubated for 30 min at room temperature. ELISA wells were washed as mentioned above. Hundred microliters of Development Solution was added to each well and incubated for 15 min at room temperature in the dark. Hundred microliters of Stop Solution was added to each well. The color changed from blue to yellow. The absorbance at 450 nm was measured within 30 min of stopping the reaction. The estimation of pg/mL of cytokines was performed using the values obtained from antigen standards and a graph was plotted for the cytokine expression with the effect of treatments.

[7] = Blood analysis; format: in vivo; parameters: HCT / MCH / WBC / RBC / HGB / MCHC: unit not given here; conditions: rat blood
Method: The analysis of blood samples was performed directly using the ABX Micros ES 60 (Horiba Medicals). The parameters analyzed included the number of red blood cells (RBC’s), white blood cells (WBC’s), platelets and hemoglobin content. Briefly, 20 μL of the blood sample was acquired in the instrument and the readings were recorded.

[8] = tested on: cornea; test: Mean opacity and mean permeability measurements, rat alkali burn model; format: in vivo; conditions: 1 M NaOH 1 min, topical treatment 40 min
Method: The mean in vivo scores was determined using the mean opacity measurements. The rat eyes were excised carefully and carried to the laboratory in HBSS supplemented with penicillin/streptomycin. The measurement of mean opacity was carried out using an opacitometer which measures the transmission of light through the center of each mounted cornea. The mean permeability score was determined by adding a fluorescent (rhodamine solution) on the anterior side of the holder and the corneas were incubated in a horizontal position for 90 min at 32°C. The medium in the posterior chamber was removed and added to 96 well plates and the OD at 490 nm was read. The readings obtained at OD490 were used to determine the permeability of each treatment with respect to the change in the untreated corneas.

[9] = tested on: conjunctival layer and corneal matrix; test: H&E histology of corneal segments, rat alkali burn model; format: in vivo; conditions: 1 M NaOH 1 min, topical treatment 40 min
Method: After the completion of the study, all tissues that required to be examined (eyes, brain, kidneys, liver, spleen, heart and lungs) were isolated. The cornea was carefully separated from the eye without damaging it and washed using phosphate buffer saline (PBS). Tissues were fixed using 4% paraformaldehyde (PF) overnight at 4°C and then washed in PBS. The tissue segments were dehydrated in graded ethanol, embedded in paraffin and 5–7 μm thick sections were cut using a microtome. Sections were collected on poly-lysine coated slides using the Leica cryostat and were fixed immediately in ice-cold acetone. All the sections were stained for haematoxylin–eosin (H&E) for critical analysis.

[10] = 2 min after topical application in eye
[11] = 10 min after topical application in eye
[12] = 30 min after topical application in eye

CC(/C=C/C(=O)NO)=C\[C@@H](C)C(=O)c1ccc(N(C)C)cc1 [TSA, trichostatin A]
alpha-SMA expression, immunofluorescence [1]: failed to downregulate it effectively | collagen type IV expression, immunofluorescence [1]: most effective in increasing | Collagen type IV gene expression, qRT-PCR [2]: efficiently downregulated | Fibronectin-1 gene expression, qRT-PCR [2]: significantly enhanced | IL-1 beta gene expression, qRT-PCR [2]: increase | IL-6 gene expression, qRT-PCR [2]: significantly lowered | MMP-2 gene expression, qRT-PCR [2]: downregulating | TGF-beta-1 gene expression, qRT-PCR [2]: further increase | TNF-alpha gene expression, qRT-PCR [2]: significantly lowered | alpha-SMA gene expression, qRT-PCR [2]: significant increase | alpha-integrin 5 gene expression, qRT-PCR [2]: significant increase | enhancement of Fibronectin-1 expression, western blot ([3]; post-NaOH insult): 1.97 fold | increase in TGF-beta-1 expression, western blot ([3]; post-NaOH insult): 1.45 fold | decrease/downregulation of collagen type IV, western blot ([3]; rat, in vivo, iv): 2.8 fold | most effective dosage in inhibiting expression of survivin, alpha-SMA, TGF-beta-1 and collagen IV [4]: 0.02 mg/kg | Concentration of TSA in Aqueous humor [5, 10]: 119.43 ± 37.92 ng/mL | Concentration of TSA in Conjunctiva [5, 10]: 267.88 ± 75.51 µg/g | Concentration of TSA in Cornea [5, 10]: 216.83 ± 78.05 µg/g | Concentration of TSA in Plasma [5, 10]: 103.61 ± 28.37 ng/mL | Concentration of TSA in Tear fluid [5, 10]: 333.42 ± 69.72 µg/g | Concentration of TSA in Aqueous humor [5, 11]: 112.94 ± 15.10 ng/mL | Concentration of TSA in Conjunctiva [5, 11]: 261.29 ± 66.47 µg/g | Concentration of TSA in Cornea [5, 11]: 291.02 ± 109.25 µg/g | Concentration of TSA in Plasma [5, 11]: 263.87 ± 80.96 ng/mL | Concentration of TSA in Tear fluid [5, 11]: 208.93 ± 30.82 µg/g | Concentration of TSA in Conjunctiva [5, 12]: 178.23 ± 35.22 µg/g | Concentration of TSA in Cornea [5, 12]: 762.86 ± 385.68 µg/g | Concentration of TSA in Plasma [5, 12]: 109.16 ± 33.00 ng/mL | Concentration of TSA in Tear fluid [5, 12]: 154.98 ± 73.25 µg/g | AUC0-8 ([5]; Aqueous humor): 7568 µg·h/g | AUC0-∞ ([5]; Aqueous humor): 7689 µg·h/g | Cmax ([5]; Aqueous humor): 11,046 ± 2734 μg/g | Tmax ([5]; Aqueous humor): 20 min | t1/2 ([5]; Aqueous humor): 90 min | AUC0-8 ([5]; Conjunctiva): 53.4 µg·h/g | Cmax ([5]; Conjunctiva): 26.26 ± 7.19 µg/g | Tmax ([5]; Conjunctiva): 5 min | t1/2 ([5]; Conjunctiva): 252 min | AUC0-8 ([5]; Cornea): 45.5 µg·h/g | AUC0-∞ ([5]; Cornea): 55.5 µg·h/g | Cmax ([5]; Cornea): 44.67 ± 12.91 µg/g | Tmax ([5]; Cornea): 5 min | t1/2 ([5]; Cornea): 210 min | AUC0-8 ([5]; Plasma): 65.5 µg·h/g | AUC0-∞ ([5]; Plasma): 68.4 µg·h/g | Cmax ([5]; Plasma): 160.3 ± 61.0 µg/g | Tmax ([5]; Plasma): 10 min | t1/2 ([5]; Plasma): 90 min | AUC0-8 ([5]; Tear fluid): 678.5 µg·h/g | AUC0-∞ ([5]; Tear fluid): 768.5 µg·h/g | Cmax ([5]; Tear fluid): 2,987 ± 1814 μg/g | Tmax ([5]; Tear fluid): 5 min | t1/2 ([5]; Tear fluid): 138 min | GMCSF expression, ELISA [6]: downregulated effectively | IFN-gamma expression, ELISA [6]: significant downregulation | IL-1 beta expression, ELISA [6]: downregulation | IL-2 expression, ELISA [6]: significantly increased | IL-4 expression, ELISA [6]: increase | IL-6 expression, ELISA [6]: downregulated effectively | IL-12 expression, ELISA [6]: further downregulation | IL-13 expression, ELISA [6]: downregulated effectively | Rantes expression, ELISA [6]: significantly downregulated | TNF-alpha expression, ELISA [6]: downregulated effectively | HCT [7]: increased the HCT count to normal range | HGB [7]: 17.61 ± 1.41 | MCH [7]: reduced to normal range | MCHC [7]: 38.15 ± 1.63 | PLT [7]: 256.33 ± 117 | RBC [7]: 8.15 ± 0.61 | WBC [7]: 5.48 ± 2.06 | MCV ([7]; in fL (unit assumed)): 56.66 ± 1.86 | HCT ([7]; listed as NaOH–TSA): 46.2 ± 4.14 | MCH ([7]; listed as NaOH–TSA): 21.63 ± 1.01 | Mean in vitro score [8]: 0.20 ± 0.5^∗ | Mean opacity measurement [8]: 0.5 ± 0.2 ^∗ | Predicted irritation potential [8]: No irritation | corneal tissue integrity (conjunctival layer, corneal matrix), H&E [9]: recovery of the conjunctival layer
